Read-outs that look alike come from different tables or passages of the source.
What was measured:
[1] = system: Serratia marcescens expressing IMP-1 (CL5741); test: Antibiotic potentiation activity: synergistic concentration (MITC95) with imipenem, OD600 growth; assay type: cell-based; conditions: for Serratia marcescens expressing IMP-1 (CL5741) MITC95: concentration giving 95% inhibition of bacterial growth
Outline: (§1)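 Absorbance after a 22–24 h, 35 °C incubation served as the read-out. Wells held bacteria (saline suspension diluted 1:100 into 1.1× CAMHB), imipenem at 4 μg/ml final or optionally 1 μg/ml, and test compound.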

[2] = system: Klebsiella pneumoniae expressing VIM-1 (IHMA599644); test: as above; assay type: cell-based; conditions: for Klebsiella pneumoniae expressing VIM-1 (IHMA 599644) MITC95: concentration giving 95% inhibition of bacterial growth
Outline: as §1

[3] = system: Escherichia coli expressing NDM-1 (CLB30016); test: as above; assay type: cell-based; conditions: for Escherichia coli expressing NDM-1 (CLB 30016) MITC95: concentration giving 95% inhibition of bacterial growth
Outline: as §1

NDM-1 = NDM-1 (Klebsiella pneumoniae, UniProt C7C422); test: biochemical; assay type: biochemical; conditions: read-out: NDM-1 IC50
NDM-1, sequence (C7C422 whole entry, looked up, species assumed): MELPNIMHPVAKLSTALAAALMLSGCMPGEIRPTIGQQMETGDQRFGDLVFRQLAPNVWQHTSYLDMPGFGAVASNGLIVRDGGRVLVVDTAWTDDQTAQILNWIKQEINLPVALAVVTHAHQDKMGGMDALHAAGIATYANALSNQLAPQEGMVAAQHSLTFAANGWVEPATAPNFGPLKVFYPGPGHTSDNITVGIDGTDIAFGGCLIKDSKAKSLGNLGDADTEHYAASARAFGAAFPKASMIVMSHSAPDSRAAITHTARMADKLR

IMP-1 = IMP-1 (Serratia marcescens, UniProt P52699); test: biochemical; assay type: biochemical; conditions: read-out: IMP-1 IC50
IMP-1, sequence (P52699 whole entry, looked up): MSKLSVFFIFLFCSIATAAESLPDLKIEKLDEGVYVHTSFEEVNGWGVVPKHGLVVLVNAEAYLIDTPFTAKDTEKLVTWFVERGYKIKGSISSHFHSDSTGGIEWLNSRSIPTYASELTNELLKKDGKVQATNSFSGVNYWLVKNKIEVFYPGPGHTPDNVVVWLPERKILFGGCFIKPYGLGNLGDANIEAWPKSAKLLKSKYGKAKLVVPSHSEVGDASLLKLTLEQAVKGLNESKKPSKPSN

VIM-1 = VIM-1 (Pseudomonas aeruginosa (strain ATCC 15692 / DSM 22644 / CIP 104116 / JCM 14847 / LMG 12228 / 1C / PRS 101 / PAO1), UniProt A0A0F7KYQ8); test: Enzyme activity: determination of IC50, fluorescence assay with CCF2-FA substrate (VIM-1); assay type: biochemical; conditions: read-out: VIM-1 IC50
[4] = Serratia marcescens CL5741 (IMP-1), 95% growth inhibition
[5] = Klebsiella pneumoniae IHMA599644 (VIM-1), 95% growth inhibition
[6] = (CLB30016, NDM-1), 95% growth inhibition
[7] = NDM-1 enzyme, CCF2-FA substrate
[8] = IMP-1 enzyme, CCF2-FA substrate
[9] = VIM-1 enzyme, CCF2-FA substrate
[10] = fluorescence assay with CCF2-FA substrate
[11] = CL5741 (IMP-1), 95% inhibition of bacterial growth
[12] = IHMA599644 (VIM-1), 95% inhibition of bacterial growth
[13] = CLB30016 (NDM-1), 95% inhibition of bacterial growth

In the case of `NS(=O)(=O)c1c(CC2CCNC2)ccc(-c2ccc(C3CCNCC3)cc2)c1-c1nn[nH]n1` (stereo not drawn) [Example 468, 4′-(piperidin-4-yl)-4-(pyrrolidin-3-ylmethyl)-2-(2H-tetrazol-5-yl)-[1,1′-biphenyl]-3-sulfonamide], the “Serratia marcescens MITC95” value ([1]; Serratia marcescens expressing IMP-1 (CL5741), 95% growth inhibition) is reported as 1.563 µM, the “Klebsiella pneumoniae MITC95” value ([2]; Klebsiella pneumoniae expressing VIM-1 (IHMA599644), 95% growth inhibition) is reported as 1.563 µM and the “Escherichia coli MITC95” value ([3]; Escherichia coli expressing NDM-1 (CLB30016), 95% growth inhibition) is reported as 0.7813 µM. It also gave an IC50 (NDM-1; NDM-1 enzyme, CCF2-FA fluorescence assay) of 9.95 nM, an IC50 (IMP-1; IMP-1 enzyme, CCF2-FA fluorescence assay) of 13.5 nM and an IC50 (VIM-1; VIM-1 enzyme, CCF2-FA fluorescence assay) of 3.81 nM.
`N=C(NCCCN)c1ccc(-c2ccc(C(F)(F)F)c(S(N)(=O)=O)c2-c2nn[nH]n2)cc1` [Example 565, N-(3-aminopropyl)-3′-sulfamoyl-2′-(2H-tetrazol-5-yl)-4′-(trifluoromethyl)biphenyl-4-carboximidamide] was tested, and the “Serratia marcescens MITC95” value [1, 4] was 25 µM, the “Klebsiella pneumoniae MITC95” value [2, 5] was 12.5 µM and the “Escherichia coli MITC95” value [3, 6] was 12.5 µM. The IC50 (NDM-1; [7]) was 187 nM, the IC50 (IMP-1; [8]) was 200 nM and the IC50 (VIM-1; [9]) was 11.3 nM.
In the case of `NS(=O)(=O)c1nccc(N2CCC(n3ccnc3)CC2)c1-c1nnn[nH]1` [Example 228, 4-[4-(1H-imidazol-1-yl)piperidin-1-yl]-3-(1H-tetrazol-5-yl)pyridine-2-sulfonamide], the “Serratia marcescens expressing IMP-1 (CL5741) MITC95” value [1] is reported as 37.5 µM, the “Klebsiella pneumoniae expressing VIM-1 (IHMA 599644) MITC95” value [2] is reported as 37.5 µM and the “Escherichia coli expressing NDM-1 (CLB 30016) MITC95” value [3] is reported as 1.563 µM. For the same compound, the IC50 (NDM-1; [10]) was 372 nM, the IC50 (IMP-1; [10]) was 3210 nM and the IC50 (VIM-1; [10]) was 343 nM.
With `Nc1nc2c(-c3cccc(S(N)(=O)=O)c3-c3nnn[nH]3)cccc2s1` [Example 134, 3-(2-aminobenzo[d]thiazol-4-yl)-2-(1H-tetrazol-5-yl)benzenesulfonamide] the “Serratia marcescens expressing IMP-1 (CL5741) MITC95” value [1] was 0.7813 µM, the “Klebsiella pneumoniae expressing VIM-1 (IHMA 599644) MITC95” value [2] was 3.125 µM and the “Escherichia coli expressing NDM-1 (CLB 30016) MITC95” value [3] was 0.5859 µM. It also gave an IC50 (NDM-1; [10]) of 0.28 nM, an IC50 (IMP-1; [10]) of 22.6 nM and an IC50 (VIM-1; [10]) of 11.1 nM.
`NS(=O)(=O)c1cccc(-c2cnc(NC3CCCC3)nc2)c1-c1nnn[nH]1` [Example 124, 3-(2-(cyclopentylamino)pyrimidin-5-yl)-2-(1H-tetrazol-5-yl)benzenesulfonamide] was tested, and the “Serratia marcescens expressing IMP-1 (CL5741) MITC95” value [1] was 6.25 µM, the “Klebsiella pneumoniae expressing VIM-1 (IHMA 599644) MITC95” value [2] was greater than 200 µM and the “Escherichia coli expressing NDM-1 (CLB 30016) MITC95” value [3] was 2.344 µM. For the same compound, the IC50 (NDM-1; [10]) was 4.34 nM, the IC50 (IMP-1; [10]) was 68.9 nM and the IC50 (VIM-1; [10]) was 259 nM.
For `NC[C@H](N)C(=O)NC1CCC(c2ccc(C(F)(F)F)c(S(N)(=O)=O)c2-c2nnn[nH]2)CC1` (stereo partly drawn) [Example 837, (S)-2,3-diamino-N-((1r,4S)-4-(3-sulfamoyl-2-(1H-tetrazol-5-yl)-4-(trifluoromethyl)phenyl)cyclohexyl)propanamide], the “Serratia marcescens MITC95” value [1, 11] was 0.5859 µM, the “Klebsiella pneumoniae MITC95” value [2, 12] was 6.25 µM and the “Escherichia coli MITC95” value [3, 13] was 1.563 µM. The IC50 (NDM-1; [10]) was 8.68 nM, the IC50 (IMP-1; [10]) was 21.2 nM and the IC50 (VIM-1; [10]) was 2.9 nM.
`NCc1ncc(CCc2ccc(C(F)(F)F)c(S(N)(=O)=O)c2-c2nn[nH]n2)cc1N` [Example 513, 3-(2-(5-Amino-6-(aminomethyl)pyridin-3-yl)ethyl)-2-(2H-tetrazol-5-yl)-6-(trifluoromethyl)benzenesulfonamide] was tested, and the “Serratia marcescens MITC95” value [1, 4] was 9.375 µM, the “Klebsiella pneumoniae MITC95” value [2, 5] was 9.375 µM and the “Escherichia coli MITC95” value [3, 6] was 12.5 µM. The IC50 (NDM-1; [7]) was 9.35 nM, the IC50 (IMP-1; [8]) was 3.61 nM and the IC50 (VIM-1; [9]) was 1.18 nM.
In the case of `NS(=O)(=O)c1c(C(F)(F)F)ccc(-c2ccc3c(c2)CNC3=O)c1-c1nnn[nH]1` [Example 746, 3-(1-oxo-2,3-dihydro-1H-isoindol-5-yl)-2-(1H-tetrazol-5-yl)-6-(trifluoromethyl)benzenesulfon-amide], the “Serratia marcescens MITC95” value [1, 11] is reported as 6.25 µM, the “Klebsiella pneumoniae MITC95” value [2, 12] is reported as 6.25 µM and the “Escherichia coli MITC95” value [3, 13] is reported as 6.25 µM. The IC50 (NDM-1; [10]) was 2.27 nM, the IC50 (IMP-1; [10]) was 2.59 nM and the IC50 (VIM-1; [10]) was 0.234 nM.
With `Nc1ccc(-c2ccc(C[C@H]3CC[C@@H](N)CC3)c(S(N)(=O)=O)c2-c2nnn[nH]2)cn1` [Example 574, 6-(((1s,4s)-4-aminocyclohexyl)methyl)-3-(6-aminopyridin-3-yl)-2-(2H-tetrazol-5-yl)benzenesulfonamide] the “Serratia marcescens MITC95” value [1, 4] was 3.125 µM, the “Klebsiella pneumoniae MITC95” value [2, 5] was 3.125 µM and the “Escherichia coli MITC95” value [3, 6] was 0.3906 µM. For the same compound, the IC50 (NDM-1; [7]) was 1.5 nM, the IC50 (IMP-1; [8]) was 35.9 nM and the IC50 (VIM-1; [9]) was 7.94 nM.

Source: patent US9708336B2, “Metallo-beta-lactamase inhibitors” (priority 2014, dated 2017)
